Laboratory results published in BigSolDB 2.1.

O=C(O)CC(O)C(=O)O (configuration not stated)
solubility (mole fraction)
Conditions | 303.2 K | 308.2 K | 313.2 K | 318.2 K | 323.2 K | 328.2 K | 333.2 K
in 1,4-dioxane | 0.14 | 0.153 | 0.16 | 0.168 | 0.177 | 0.192 | 0.21
in THF | 0.145 | 0.156 | 0.191 | 0.199 | 0.219 | 0.235 | 0.253
in acetonitrile | 0.007 | 0.009 | 0.011 | 0.012 | 0.015 | 0.017 | 0.021
in ethanol | 0.082 | 0.091 | 0.101 | 0.115 | 0.121 | 0.129 | 0.134
in isopropanol | 0.036 | 0.045 | 0.055 | 0.071 | 0.094 | 0.118 | 0.134
in water | 0.066 | 0.084 | 0.106 | 0.132 | 0.154 | 0.17 | 0.184
